The text below walks through data of patent publication US10487313B2, “Efficient induction of definitive endoderm from pluripotent stem cells” (Novo Nordisk A/S, priority 2011, dated 2019).

Data set [1] has as its system SA121 hES and chIPS4 iPS cells. Nature of the data set: Quantitative real-time PCR of PS and DE markers (Brachyury, SOX17) during DE induction. It is filed as cell-based, human. The following applies: for Brachyury (PS) response timing compared to CHIR treatment: Wnt3a (200 ng/ml) or BIO (0.5 μM) 24 h instead of CHIR, upregulated D2. The procedure: Human embryonic stem (hES) cells SA121 and chIPS4 (Cellartis) were grown on human fibronectin (Sigma) in DEF culture media (Cellartis) with 30 ng/ml bFGF (Invitrogen) and 10 ng/ml Noggin (Peprotech) in 6-96 well plates. Cells were single cell passaged with Rock inhibitor Y-27632 (Calbiochem) and seeded at a density of 40000 cells/cm2 for experiments. Experiments were initiated 4 d after passage.
Confluent cultures were washed once in RPMI1640 (Invitrogen) before 24 hour pre-treatment with 0,5-7μM CHIR99021 (Stemgent) in RPMI. Control cells were left untreated in RPMI and D'Amour cells were either left in RPMI or treated with AA (Peprotech)+Wnt3a (R&D Systems) without pre-treatment depending on experimental setup.
After 24 hours, pretreated and control cells were washed once with RPMI before adding 100 ng/ml AA in RPMI. D'Amour cells were also treated with 100 ng/ml AA but with 0,2% FBS instead of B27. 24 h later, 2% B27 (Invitrogen) was added to the AA media for 2-3 d. Control cells were treated with B27 to prevent cell death and D'Amour cells with 2% FBS according to published protocol. Media was changed every day.
RNA samples were collected after 24 h pre-treatment (D1), after 1 day of AA treatment (D2) and after 1-2 d of AA+B27 treatment (D3-4). Total RNA was extracted with the Rneasy Plus Mini kit (Qiagen) and quantitative real-time PCR was performed using the StepOnePLus system (Applied Biosystems).
Undifferentiated SA121 hES and chIPS4 iPS cells in DEF media (DO) were cultured either in RPMI without CHIR (Ctrl D1) or treated for 24 h with CHIR in RPMI (CHIR D1). The cells were then washed to ensure absence of CHIR and then both conditions were treated with 1 d AA (Ctrl and CHIR d2). […] T fold inductions after 24 h CHIR treatment spanned between 500-100000 compared to undifferentiated cells (d0). T protein levels were also confirmed with ICC (FIG. 2C).
The efficiency levels for both T and SOX17 were highly robust (n>60) and confirmed with IHC and SOX17 quantifications (FIG. 2C and Table 2.). […] SOX17 expression peaked already after one day of AA treatment when cells were subjected to CHIR for 24 h before AA induction.
(§1) hES SA121 and ChIPS4 cells were treated with either CHIR (3 μM), BIO (0.5 μM), Wnt3a (200 ng/ml) or AA alone (100 ng/ml) for 24 h prior to AA addition to show CHIR specificity (d1). Additionally, D'Amour (protocol as described in Kroon et al 2008) was tested in parallel.
Chir was titrated at concentrations between 1-7 uM and analyzed after 24 h Chir treatment (D1) and after 2 d of following AA treatment (D3).
(In general: Quantitative PCR measures a nucleic acid by following its amplification.)

In a further data set the test system is hES SA121 cells. In words: CHIR specificity: cell survival after 24 h pre-treatment prior to AA addition. The class given is cell-based, human. Conditions: 24 h pre-treatment with BIO (0.5 μM) or AA alone (100 ng/ml), then AA. How it is done:
as §1
The data clearly illustrated that PS transition (upregulation of Brachyury) and DE induction (upregulation of SOX17) were both accelerated and much higher after CHIR treatment compared to pretreatment with growth factors such as AA and Wnt3a.

For `O=C1Nc2cc(Br)ccc2/C1=C1/Nc2ccccc2/C1=N\O` [BIO], the “Brachyury (PS) response timing compared to CHIR treatment” value in data set [1] is listed as “delayed”. Besides, in the data set on hES SA121 cells, the “cell survival until day 3” value is “did not survive until day 3”.
On to “AA: Activin A, growth factor used for definitive endoderm induction”, for which, in data set [1] (CHIR-priming step 24 h then AA, versus AA alone), the “time of SOX17 induction peak after AA” value was 3 to 4 days. In addition, the “cell survival until day 3” value in the data set on hES SA121 cells is reported as “did not survive until day 3”.

B1: Wnt3a: the Wnt receptor ligand Wnt3a (protein, UniProt P56704 19-352, looked up)
Protein Wnt-3a: SYPIWWSLAVGPQYSSLGSQPILCASIPGLVPKQLRFCRNYVEIMPSVAEGIKIGIQECQHQFRGRRWNCTTVHDSLAIFGPVLDKATRESAFVHAIASAGVAFAVTRSCAEGTAAICGCSSRHQGSPGKGWKWGGCSEDIEFGGMVSREFADARENRPDARSAMNRHNNEAGRQAIASHMHLKCKCHGLSGSCEVKTCWWSQPDFRAIGDFLKDKYDSASEMVVEKHRESRGWVETLRPRYTYFKVPTERDLVYYEASPNFCEPNPETGSFGTRDRTCNVSSHGIDGCDLLCCGRGHNARAERRREKCRCVFHWCCYVSCQECTRVYDVHTCK
In the case of B1, the “Brachyury (PS) response timing compared to CHIR treatment” value in data set [1] was “delayed”.
